Test system: K562 leukemia cancer cells
Description: DOX-loaded ICVs were tested for cytotoxicity to K562 cancer cells compared to free DOX, as assessed by using an MTT assay (see FIG. 5).

With `COc1cccc2c1C(=O)c1c(O)c3c(c(O)c1C2=O)C[C@@](O)(C(=O)CO)C[C@@H]3O[C@H]1C[C@H](N)[C@H](O)[C@H](C)O1` [DOX, doxorubicin] the “order of K562 cytotoxicity” value was “DOX>NK92 ICVs-DOX>K562 ICVs-DOX”.

Reference: US20220119767A1, “NATURAL KILLER CELL INDUCED CELLULAR VESICLES FOR CANCER THERAPY” (The Regents of the University of California, priority 2019, published 2022)
